Experimental findings from publication PMC6437697 (Journal of Medicinal Chemistry, 2019) are described below.

What all share (assay): KINOMEscan
Assay type in all cases: binding
Holding throughout (settings): read-out: % control activity remaining

For one experiment, the target named is T1, ACVRL1 (Homo sapiens, UniProt P37023).
T1 construct: purchased Eurofins DiscoverX KINOMEscan

The next experiment deals with T2, BTK (Homo sapiens, UniProt Q06187).
T2 construct: purchased Eurofins DiscoverX KINOMEscan

The next experiment deals with T3, CDKL3 (Homo sapiens, UniProt Q8IVW4).
T3 construct: purchased Eurofins DiscoverX KINOMEscan

For another experiment, the target named is T4, FLT1 (Homo sapiens, UniProt P17948).
T4 construct: purchased Eurofins DiscoverX KINOMEscan

The next experiment has as its target T5, HIPK3 (Homo sapiens, UniProt Q9H422).
T5 construct: purchased Eurofins DiscoverX KINOMEscan

The target in another experiment is T6, MYO3B (Homo sapiens, UniProt Q8WXR4).
T6 construct: purchased Eurofins DiscoverX KINOMEscan
T6 sequence (Q8WXR4 1-1341): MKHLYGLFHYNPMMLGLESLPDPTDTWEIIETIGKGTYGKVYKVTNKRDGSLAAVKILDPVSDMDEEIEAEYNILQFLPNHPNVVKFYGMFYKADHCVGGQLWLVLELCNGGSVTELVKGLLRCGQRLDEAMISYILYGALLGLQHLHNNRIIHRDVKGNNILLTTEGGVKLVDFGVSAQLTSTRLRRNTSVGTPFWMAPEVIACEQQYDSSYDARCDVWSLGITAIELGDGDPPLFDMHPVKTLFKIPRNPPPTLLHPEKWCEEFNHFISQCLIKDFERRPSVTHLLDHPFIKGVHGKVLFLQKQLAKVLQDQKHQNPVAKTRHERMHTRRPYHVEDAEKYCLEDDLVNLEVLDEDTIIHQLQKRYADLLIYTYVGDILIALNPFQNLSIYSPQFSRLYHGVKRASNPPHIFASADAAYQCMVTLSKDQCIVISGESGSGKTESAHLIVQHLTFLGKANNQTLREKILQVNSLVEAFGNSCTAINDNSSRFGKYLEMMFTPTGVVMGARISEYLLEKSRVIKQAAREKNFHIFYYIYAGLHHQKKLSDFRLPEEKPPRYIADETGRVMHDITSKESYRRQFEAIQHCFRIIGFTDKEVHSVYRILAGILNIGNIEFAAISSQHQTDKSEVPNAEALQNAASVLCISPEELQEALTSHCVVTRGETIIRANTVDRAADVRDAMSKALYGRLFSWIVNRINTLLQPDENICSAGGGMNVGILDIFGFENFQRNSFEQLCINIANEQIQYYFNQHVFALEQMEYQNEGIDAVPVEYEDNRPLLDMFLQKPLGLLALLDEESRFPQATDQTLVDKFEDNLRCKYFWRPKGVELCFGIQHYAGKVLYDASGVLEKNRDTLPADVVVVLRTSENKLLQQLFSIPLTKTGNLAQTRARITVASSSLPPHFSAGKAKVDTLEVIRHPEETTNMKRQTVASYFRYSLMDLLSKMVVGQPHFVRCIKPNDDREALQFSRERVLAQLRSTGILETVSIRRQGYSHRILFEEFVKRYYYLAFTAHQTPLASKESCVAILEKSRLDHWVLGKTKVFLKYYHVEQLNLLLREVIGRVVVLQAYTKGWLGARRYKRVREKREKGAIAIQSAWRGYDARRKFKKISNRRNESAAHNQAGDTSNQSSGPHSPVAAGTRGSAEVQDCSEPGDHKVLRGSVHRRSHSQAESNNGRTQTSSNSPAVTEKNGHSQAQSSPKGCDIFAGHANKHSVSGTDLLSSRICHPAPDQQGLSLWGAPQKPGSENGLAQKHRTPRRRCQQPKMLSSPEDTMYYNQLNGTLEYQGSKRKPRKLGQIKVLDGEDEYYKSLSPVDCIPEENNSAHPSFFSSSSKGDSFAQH

In a further experiment the target is T7, NLK (Homo sapiens, UniProt Q9UBE8).
T7 construct: purchased Eurofins DiscoverX KINOMEscan
T7 sequence (Q9UBE8 1-527): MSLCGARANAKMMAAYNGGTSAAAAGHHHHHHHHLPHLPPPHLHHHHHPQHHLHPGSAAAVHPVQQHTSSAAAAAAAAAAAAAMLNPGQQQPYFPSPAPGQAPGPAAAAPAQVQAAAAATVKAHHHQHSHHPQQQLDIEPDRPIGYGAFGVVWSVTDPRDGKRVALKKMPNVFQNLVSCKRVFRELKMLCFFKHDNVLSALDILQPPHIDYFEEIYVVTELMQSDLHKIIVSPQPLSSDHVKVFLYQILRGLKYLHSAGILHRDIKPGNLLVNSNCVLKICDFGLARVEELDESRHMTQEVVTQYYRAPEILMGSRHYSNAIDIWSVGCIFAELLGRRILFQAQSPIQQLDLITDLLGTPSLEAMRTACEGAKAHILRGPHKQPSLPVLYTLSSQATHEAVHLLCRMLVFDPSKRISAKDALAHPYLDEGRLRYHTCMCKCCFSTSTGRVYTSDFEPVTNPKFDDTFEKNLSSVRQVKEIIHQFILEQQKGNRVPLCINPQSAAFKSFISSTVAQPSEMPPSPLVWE

The target of the next experiment is T8, PAK1 (Homo sapiens, UniProt Q13153).
T8 construct: purchased Eurofins DiscoverX KINOMEscan

In a further experiment the target is T9, SNARK (Homo sapiens, UniProt Q9H093).
T9 construct: purchased Eurofins DiscoverX KINOMEscan
T9 sequence (Q9H093 1-628): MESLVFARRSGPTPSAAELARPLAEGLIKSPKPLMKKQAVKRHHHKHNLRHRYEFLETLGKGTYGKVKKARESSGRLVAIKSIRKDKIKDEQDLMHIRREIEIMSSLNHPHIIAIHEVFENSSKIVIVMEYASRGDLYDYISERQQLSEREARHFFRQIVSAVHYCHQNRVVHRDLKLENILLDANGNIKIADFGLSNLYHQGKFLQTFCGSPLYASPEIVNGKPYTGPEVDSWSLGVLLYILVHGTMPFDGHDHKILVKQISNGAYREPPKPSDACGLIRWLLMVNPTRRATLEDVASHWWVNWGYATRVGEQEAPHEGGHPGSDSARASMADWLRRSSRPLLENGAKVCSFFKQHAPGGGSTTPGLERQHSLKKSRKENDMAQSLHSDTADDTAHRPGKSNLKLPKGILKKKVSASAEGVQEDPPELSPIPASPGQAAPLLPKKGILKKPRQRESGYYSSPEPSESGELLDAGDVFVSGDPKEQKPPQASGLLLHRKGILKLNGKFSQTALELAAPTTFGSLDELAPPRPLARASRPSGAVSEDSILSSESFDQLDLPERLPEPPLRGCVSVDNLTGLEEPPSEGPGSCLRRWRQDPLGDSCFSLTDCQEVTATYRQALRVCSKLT

The next experiment addresses T10, YANK2 (Homo sapiens, UniProt Q9NY57).
T10 construct: purchased Eurofins DiscoverX KINOMEscan

A further experiment deals with T11, ZAK (Homo sapiens, UniProt Q9NYL2).
T11 construct: purchased Eurofins DiscoverX KINOMEscan

T10 sequence (Q9NY57 whole entry): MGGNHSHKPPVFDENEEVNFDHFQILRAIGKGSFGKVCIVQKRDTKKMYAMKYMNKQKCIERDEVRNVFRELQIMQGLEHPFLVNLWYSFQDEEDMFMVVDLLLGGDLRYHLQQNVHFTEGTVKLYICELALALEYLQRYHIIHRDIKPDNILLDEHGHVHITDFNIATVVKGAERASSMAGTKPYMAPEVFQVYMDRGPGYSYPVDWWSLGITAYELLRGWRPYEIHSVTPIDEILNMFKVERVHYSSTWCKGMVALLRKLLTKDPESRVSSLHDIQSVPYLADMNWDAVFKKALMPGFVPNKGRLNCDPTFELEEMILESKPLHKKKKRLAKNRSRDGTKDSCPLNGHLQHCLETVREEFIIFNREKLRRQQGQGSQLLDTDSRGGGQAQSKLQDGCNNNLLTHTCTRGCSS
T2 sequence (Q06187 whole entry): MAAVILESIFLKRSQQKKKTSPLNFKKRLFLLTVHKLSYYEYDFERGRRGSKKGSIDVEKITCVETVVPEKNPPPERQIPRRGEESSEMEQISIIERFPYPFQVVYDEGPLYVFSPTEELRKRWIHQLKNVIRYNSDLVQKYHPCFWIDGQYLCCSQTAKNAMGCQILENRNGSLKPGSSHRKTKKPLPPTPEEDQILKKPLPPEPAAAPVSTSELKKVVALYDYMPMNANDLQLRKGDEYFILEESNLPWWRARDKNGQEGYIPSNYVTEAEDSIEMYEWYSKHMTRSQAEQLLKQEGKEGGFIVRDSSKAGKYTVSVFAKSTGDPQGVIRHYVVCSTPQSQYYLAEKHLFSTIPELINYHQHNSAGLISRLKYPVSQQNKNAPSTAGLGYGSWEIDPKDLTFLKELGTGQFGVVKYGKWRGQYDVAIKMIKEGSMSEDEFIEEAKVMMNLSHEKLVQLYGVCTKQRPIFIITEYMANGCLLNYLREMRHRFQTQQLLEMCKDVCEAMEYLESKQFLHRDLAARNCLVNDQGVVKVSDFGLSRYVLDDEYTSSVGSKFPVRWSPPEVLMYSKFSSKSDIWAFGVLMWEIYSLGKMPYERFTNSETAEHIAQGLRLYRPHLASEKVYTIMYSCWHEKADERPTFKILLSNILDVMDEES
T3 sequence (Q8IVW4 whole entry): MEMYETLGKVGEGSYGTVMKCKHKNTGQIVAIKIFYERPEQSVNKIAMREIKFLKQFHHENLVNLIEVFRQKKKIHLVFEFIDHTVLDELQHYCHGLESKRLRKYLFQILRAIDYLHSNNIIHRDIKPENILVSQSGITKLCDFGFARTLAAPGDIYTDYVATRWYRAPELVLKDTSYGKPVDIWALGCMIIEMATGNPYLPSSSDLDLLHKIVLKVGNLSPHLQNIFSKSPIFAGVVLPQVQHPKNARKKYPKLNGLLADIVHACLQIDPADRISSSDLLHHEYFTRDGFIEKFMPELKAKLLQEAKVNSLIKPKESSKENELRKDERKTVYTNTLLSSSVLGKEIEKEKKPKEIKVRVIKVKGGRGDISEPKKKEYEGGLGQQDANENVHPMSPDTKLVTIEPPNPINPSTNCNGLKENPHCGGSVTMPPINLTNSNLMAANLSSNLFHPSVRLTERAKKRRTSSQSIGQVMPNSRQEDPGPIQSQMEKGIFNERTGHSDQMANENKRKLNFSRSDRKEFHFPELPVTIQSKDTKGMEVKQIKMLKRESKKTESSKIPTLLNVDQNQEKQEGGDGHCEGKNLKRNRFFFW
T5 sequence (Q9H422 whole entry): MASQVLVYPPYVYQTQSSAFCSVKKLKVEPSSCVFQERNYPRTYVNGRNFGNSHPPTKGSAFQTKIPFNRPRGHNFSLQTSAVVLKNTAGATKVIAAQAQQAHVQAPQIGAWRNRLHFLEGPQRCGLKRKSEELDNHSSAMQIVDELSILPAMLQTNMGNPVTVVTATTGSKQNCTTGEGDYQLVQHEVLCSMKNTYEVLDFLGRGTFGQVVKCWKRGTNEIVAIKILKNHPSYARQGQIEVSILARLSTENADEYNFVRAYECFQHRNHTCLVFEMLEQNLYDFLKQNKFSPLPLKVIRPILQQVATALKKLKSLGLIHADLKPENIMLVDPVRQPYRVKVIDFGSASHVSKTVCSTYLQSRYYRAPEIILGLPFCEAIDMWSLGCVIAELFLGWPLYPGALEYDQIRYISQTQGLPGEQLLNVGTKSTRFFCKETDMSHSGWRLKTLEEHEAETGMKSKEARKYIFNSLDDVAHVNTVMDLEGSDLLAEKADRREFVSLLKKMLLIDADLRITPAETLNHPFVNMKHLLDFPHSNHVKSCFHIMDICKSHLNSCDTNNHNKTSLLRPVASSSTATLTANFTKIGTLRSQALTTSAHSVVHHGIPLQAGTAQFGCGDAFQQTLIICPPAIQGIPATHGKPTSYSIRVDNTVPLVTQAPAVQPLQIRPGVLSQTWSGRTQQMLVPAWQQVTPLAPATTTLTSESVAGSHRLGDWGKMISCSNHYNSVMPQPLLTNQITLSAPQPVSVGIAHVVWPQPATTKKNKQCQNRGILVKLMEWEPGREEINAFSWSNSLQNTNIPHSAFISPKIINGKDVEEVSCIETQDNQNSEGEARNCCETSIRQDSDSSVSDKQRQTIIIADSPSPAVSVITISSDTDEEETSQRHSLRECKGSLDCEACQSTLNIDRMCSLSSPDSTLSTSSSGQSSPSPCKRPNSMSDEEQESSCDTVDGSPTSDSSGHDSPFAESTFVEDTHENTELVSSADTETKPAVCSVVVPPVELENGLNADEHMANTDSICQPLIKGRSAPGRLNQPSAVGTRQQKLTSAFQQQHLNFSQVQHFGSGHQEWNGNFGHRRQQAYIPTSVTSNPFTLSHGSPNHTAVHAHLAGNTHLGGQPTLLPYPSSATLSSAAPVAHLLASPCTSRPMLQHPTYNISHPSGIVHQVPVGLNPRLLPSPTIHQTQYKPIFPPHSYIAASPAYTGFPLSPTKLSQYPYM
T1 sequence (P37023 22-503): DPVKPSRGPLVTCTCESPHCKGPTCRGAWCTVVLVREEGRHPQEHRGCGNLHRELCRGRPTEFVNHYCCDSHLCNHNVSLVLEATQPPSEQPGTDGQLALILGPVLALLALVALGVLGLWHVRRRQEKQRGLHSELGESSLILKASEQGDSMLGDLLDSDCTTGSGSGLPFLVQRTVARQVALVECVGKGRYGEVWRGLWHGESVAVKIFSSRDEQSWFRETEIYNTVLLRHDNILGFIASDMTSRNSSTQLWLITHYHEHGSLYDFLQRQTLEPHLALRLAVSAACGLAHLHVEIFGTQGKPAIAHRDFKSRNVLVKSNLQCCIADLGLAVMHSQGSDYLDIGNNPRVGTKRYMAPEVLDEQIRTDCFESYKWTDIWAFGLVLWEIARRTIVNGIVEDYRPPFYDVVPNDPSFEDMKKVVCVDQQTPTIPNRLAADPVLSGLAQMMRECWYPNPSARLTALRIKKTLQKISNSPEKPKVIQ
T4 sequence (P17948 27-1338): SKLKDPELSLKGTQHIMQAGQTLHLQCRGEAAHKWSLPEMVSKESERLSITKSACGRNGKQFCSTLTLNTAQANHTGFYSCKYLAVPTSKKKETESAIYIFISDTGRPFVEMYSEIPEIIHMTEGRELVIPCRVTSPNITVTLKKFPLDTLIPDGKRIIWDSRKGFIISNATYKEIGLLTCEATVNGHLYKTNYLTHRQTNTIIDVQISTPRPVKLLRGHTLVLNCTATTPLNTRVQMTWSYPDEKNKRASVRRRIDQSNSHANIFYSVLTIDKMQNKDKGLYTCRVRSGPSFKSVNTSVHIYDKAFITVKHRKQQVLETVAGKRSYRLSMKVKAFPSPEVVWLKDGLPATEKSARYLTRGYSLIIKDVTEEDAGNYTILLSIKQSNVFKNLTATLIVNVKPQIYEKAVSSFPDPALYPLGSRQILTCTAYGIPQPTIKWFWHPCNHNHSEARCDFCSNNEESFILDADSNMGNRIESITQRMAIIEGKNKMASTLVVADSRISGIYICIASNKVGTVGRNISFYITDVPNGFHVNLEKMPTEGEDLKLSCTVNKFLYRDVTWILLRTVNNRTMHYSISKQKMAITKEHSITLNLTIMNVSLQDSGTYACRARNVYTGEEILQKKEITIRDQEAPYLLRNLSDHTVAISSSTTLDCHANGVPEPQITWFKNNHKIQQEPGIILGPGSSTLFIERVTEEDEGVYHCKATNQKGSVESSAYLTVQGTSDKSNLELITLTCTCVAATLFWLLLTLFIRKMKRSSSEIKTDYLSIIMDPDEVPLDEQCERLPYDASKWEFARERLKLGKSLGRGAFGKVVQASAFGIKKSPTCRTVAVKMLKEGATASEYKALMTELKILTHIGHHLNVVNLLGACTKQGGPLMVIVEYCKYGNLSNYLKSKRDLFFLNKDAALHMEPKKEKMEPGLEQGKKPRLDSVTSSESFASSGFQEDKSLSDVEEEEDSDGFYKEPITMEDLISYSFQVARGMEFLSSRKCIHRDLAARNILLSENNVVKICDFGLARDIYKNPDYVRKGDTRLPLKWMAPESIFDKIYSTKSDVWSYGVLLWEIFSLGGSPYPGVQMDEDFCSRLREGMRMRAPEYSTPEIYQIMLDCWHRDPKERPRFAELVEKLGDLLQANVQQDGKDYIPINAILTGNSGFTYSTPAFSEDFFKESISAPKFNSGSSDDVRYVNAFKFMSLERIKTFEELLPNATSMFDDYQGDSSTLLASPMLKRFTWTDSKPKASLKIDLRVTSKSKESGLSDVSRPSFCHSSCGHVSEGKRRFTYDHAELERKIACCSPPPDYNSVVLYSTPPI

Consider `Clc1cc(NCC2CC2)c2ncc(-c3ccc4[nH]ncc4c3)n2n1` [compound 2, 6-Chloro-N-(cyclopropylmethyl)-3-(1H-indazol-5-yl)imidazo[1,2-b]pyridazin-8-amine], for which the remaining binding at 1 µM at ACVRL1 amounted to 98%; on BTK, 98%; at CDKL3, 100%; at FLT1 it was 90%; at HIPK3, 63%; on MYO3B, 82%. Moreover, the remaining binding at 1 µM at NLK was determined as 70%; at PAK1 it was 98%; at SNARK it was 99%; at YANK2, 94%; on ZAK, 86%.

With `O=C(CN1CCOCC1)N[C@H]1CC[C@H](Nc2cc(Cl)nn3c(-c4ccc5[nH]ncc5c4)cnc23)CC1` [compound 26], the remaining binding at 1 µM was 100% at ACVRL1; 100% at BTK; 88% at CDKL3; 11% on FLT1; 2.4% at HIPK3; 92% on MYO3B. Moreover, the remaining binding at 1 µM at NLK worked out at 100%; at PAK1, 99%; at SNARK, 73%; at YANK2 it was 100%; on ZAK, 87%.

`CN1CCC(CNc2cc(Cl)nn3c(-c4cc5nc(Nc6ccccc6)[nH]c5cc4F)cnc23)CC1` [compound 31, 6-Chloro-3-(6-fluoro-2-(phenylamino)-1H-benzo[d]imidazol-5-yl)-N-((1-methylpiperidin-4-yl)methyl)imidazo[1,2-b]pyridazin-8-amine]: the remaining binding at 1 µM worked out at 100% on ACVRL1; 70% on BTK; 90% at CDKL3; 45% on FLT1; 89% on HIPK3; 73% at MYO3B. In addition, the remaining binding at 1 µM amounted to 100% at NLK; 89% at PAK1; 88% on SNARK; 100% on YANK2; 93% on ZAK.
